Experiment [1] relates to Calf thymus DNA. As to the kind of experiment: Binding affinity to calf thymus DNA assessed as relative viscosity after 5 mins by semimicrodilution capillary viscometer analysis. The class given is nucleic-acid assay. As to conditions: Bos taurus.
Experiment [2] deals with Escherichia coli. As to the kind of experiment: Photo-cleavage activity in Escherichia coli supercoiled pUC19 DNA assessed as formation of open circular form of DNA at 60 uM measured 2 hrs after UV-light irradiation by gel electrophoresis analysis.
Experiment [3] relates to Escherichia coli. The experiment is described as follows: Photo-cleavage activity in Escherichia coli supercoiled pUC19 DNA assessed as formation of nicked form of DNA at 20 to 40 uM measured 2 hrs after UV-light irradiation by gel electrophoresis analysis.
The test system of experiment [4] is Calf thymus DNA. As to the kind of experiment: Binding affinity to calf thymus DNA assessed as fluorescence quenching at DNA/compound ratio 4 by fluorescence spectrophotometer analysis. The class given is nucleic-acid assay. As to conditions: Bos taurus.
For experiment [5], the system named is Escherichia coli. The experiment is described as follows: Photo-cleavage activity in Escherichia coli supercoiled pUC19 DNA assessed as formation of nicked form of DNA at 80 uM measured 2 hrs after UV-light irradiation by gel electrophoresis analysis.
In experiment [6] the test system is Escherichia coli. The experiment is described as follows: Photo-cleavage activity in Escherichia coli supercoiled pUC19 DNA assessed as formation of linear form of DNA at 80 uM measured 2 hrs after UV-light irradiation by gel electrophoresis analysis.
The subject of experiment [7] is Calf thymus DNA. The experiment is described as follows: Binding affinity to calf thymus DNA by UV-visible absorption spectroscopy. The class given is nucleic-acid assay, Bos taurus. As to conditions: for Kb: Bos taurus.
Experiment [8] relates to Escherichia coli. The experiment is described as follows: Photo-cleavage activity in Escherichia coli supercoiled pUC19 DNA assessed as formation of open circular form of DNA at 140 uM measured 2 hrs after UV-light irradiation by gel electrophoresis analysis.
In experiment [9] the test system is Escherichia coli. The experiment is described as follows: Photo-cleavage activity in Escherichia coli supercoiled pUC19 DNA assessed as formation of open circular form of DNA at 80 uM measured 2 hrs after UV-light irradiation by gel electrophoresis analysis.
Experiment [10] concerns Escherichia coli. The experiment is described as follows: Photo-cleavage activity in Escherichia coli supercoiled pUC19 DNA assessed as formation of open circular form of DNA at 40 uM measured 2 hrs after UV-light irradiation by gel electrophoresis analysis.

The source made the active and inactive calls. The rule behind the calls is not given here.

Results on 8 molecules are retold here after ChEMBL document CHEMBL3621078, “Synthesis, DNA binding, docking and photocleavage studies of quinolinyl chalcones” (Medchemcomm, 2014).

Usually Ki stands for the dissociation constant of the complex between target and ligand, obtained from inhibition or displacement. Regarding `O=C(/C=C/c1cc2ccccc2nc1Cl)c1ccc([N+](=O)[O-])cc1`, the result in [1] and in [4] was Active. Also, the Activity came to 56% in [2], 8% in experiment [3], 70% in experiment [5] and 24% in experiment [6]. For the same molecule, the inhibitory constant (Ki) in [7] amounted to 531 nM. The same molecule displayed a Kb in experiment [7] of 4.91 ×10⁴ /M.

As for `O=C(/C=C/c1cc2ccccc2nc1Cl)c1ccccc1`, the outcome in experiment [1] and in experiment [4] was Active. For the same molecule, the Activity in experiment [2] amounted to 50%; in experiment [3], 8%; in [5], 70%; in [6], 24%. The Ki in [7] was found to be 572 nM. Further, the Kb in experiment [7] was 5.2 ×10⁴ /M.

For `O=C(/C=C/c1cc2ccccc2nc1Cl)c1ccc(Cl)cc1`, the outcome in experiment [1] and in experiment [4] was Active. Besides, the Activity came to 54% in [2], 8% in experiment [3], 70% in experiment [5] and 24% in experiment [6]. Besides, the Ki in experiment [7] turned out to be 562 nM. In addition, the Kb in [7] turned out to be 5.13 ×10⁴ /M.

As for `COc1ccc(C(=O)/C=C/c2cc3ccccc3nc2Cl)cc1`, the result in experiment [1] and in experiment [4] was Active. For the same molecule, the Activity turned out to be 58% in experiment [8]; 52% in experiment [2]; 8% in experiment [3]; 70% in [5]; 24% in [6]. Moreover, the Kb in [7] came to 2.8 ×10⁴ /M.

Regarding `O=C(/C=C/c1cc2ccccc2nc1Cl)c1ccc(O)cc1`, the outcome in [1] and in experiment [4] was Active. For the same molecule, the Activity in [2] is 53%; in experiment [3], 8%; in experiment [9], 70%; in [10] it was 24%; in [5], 70%; in experiment [6] it was 24%. Moreover, the Kb in [7] is 1.9 ×10⁴ /M.

Take `CNc1ccc(C(=O)/C=C/c2cc3ccccc3nc2Cl)cc1`: the Activity in experiment [2] was 57%; in experiment [3] it was 8%; in experiment [9], 40%; in experiment [5], 40%; in [6] it was 24%. Also, the Kb in experiment [7] was 3.5 ×10⁴ /M.

Take `Cc1ccc(C(=O)/C=C/c2cc3ccccc3nc2Cl)cc1`: the outcome in experiment [1] and in experiment [4] was Active. The Activity in [2] turned out to be 51%; in [3], 8%; in experiment [5], 70%; in experiment [6], 24%. In addition, affinity in [7] was put at a Ki of 540 nM. In addition, the Kb in experiment [7] was 4.9 ×10⁴ /M.

In the case of `O=C(/C=C/c1cc2ccccc2nc1Cl)c1ccc(Br)cc1`, the outcome in [1] and in experiment [4] was Active. In addition, the Activity in [2] stood at 55%; in experiment [3] it was 8%; in experiment [5] it was 70%; in [6], 24%. In addition, in experiment [7], the inhibition constant Ki worked out at 468 nM. Moreover, in [7], the Kb is 4.2 ×10⁴ /M.
